The NIST ThermoML archive (doi:10.1021/je500380x)
Numbers after ± are expanded uncertainties.

Assay: mn = molality of the nth substance listed, in mol/kg
Conditions: 100 kPa, Liquid; for electrical conductivity: Alternating current cell with electrodes; for viscosity: Falling or rolling sphere viscometry; for mass density: Vibrating tube method

CCC(=O)OCCN1CCNCC1 [2-(piperazin-1-yl)ethyl propionate] + O
Conditions | electrical conductivity [S/m] | mass density [kg/m3] | viscosity [mPa·s]
293.15 K, m1 = 0.05 | 0.239 ± 0.003 | 1000.1 ± 0.11 | 1.031 ± 0.013
293.15 K, m1 = 0.0999 | 0.436 ± 0.004 | 1002.01 ± 0.11 | 1.081 ± 0.013
293.15 K, m1 = 0.1996 | 0.762 ± 0.008 | 1005.79 ± 0.11 | 1.172 ± 0.014
293.15 K, m1 = 0.3 | 1.028 ± 0.01 | 1009.71 ± 0.11 | 1.247 ± 0.015
293.15 K, m1 = 0.3997 | 1.25 ± 0.013 | 1013.54 ± 0.11 | 1.349 ± 0.017
293.15 K, m1 = 0.5001 | 1.406 ± 0.014 | 1017.42 ± 0.11 | 1.464 ± 0.018
293.15 K, m1 = 0.5992 | 1.56 ± 0.016 | 1021.32 ± 0.11 | 1.581 ± 0.02
293.15 K, m1 = 0.6993 | 1.68 ± 0.017 | 1025.14 ± 0.11 | 1.726 ± 0.021
293.15 K, m1 = 0.7997 | 1.77 ± 0.018 | 1029.27 ± 0.11 | 1.883 ± 0.023
293.15 K, m1 = 0.9003 | 1.822 ± 0.018 | 1033.09 ± 0.11 | 2.075 ± 0.026
293.15 K, m1 = 0.9988 | 1.85 ± 0.019 | 1037.12 ± 0.11 | 2.263 ± 0.028
293.15 K, m1 = 1.199 | 1.86 ± 0.019 | 1045.08 ± 0.11 | 2.77 ± 0.034
293.15 K, m1 = 1.402 | 1.8 ± 0.018 | 1053.12 ± 0.12 | 3.472 ± 0.043
293.15 K, m1 = 1.6 | 1.68 ± 0.017 | 1060.85 ± 0.12 | 4.338 ± 0.053
293.15 K, m1 = 1.802 | 1.523 ± 0.015 | 1068.6 ± 0.12 | 5.445 ± 0.067
293.15 K, m1 = 1.998 | 1.35 ± 0.014 | 1075.94 ± 0.12 | 7.039 ± 0.087
293.15 K, m1 = 2.2 | 1.16 ± 0.012 | 1083.11 ± 0.12 | 9.362 ± 0.12
293.15 K, m1 = 2.402 | 0.955 ± 0.01 | 1090.06 ± 0.12 | 12.4 ± 0.15
293.15 K, m1 = 2.6 | 0.779 ± 0.008 | 1096.1 ± 0.13 | 18.48 ± 0.23
293.15 K, m1 = 2.798 | 0.595 ± 0.006 | 1101.66 ± 0.13 | 25.9 ± 0.32
293.15 K, m1 = 3.002 | 0.461 ± 0.005 | 1106.84 ± 0.13 | 36.82 ± 0.45
298.15 K, m1 = 0.05 | 0.267 ± 0.003 | 998.94 ± 0.11 | 0.92 ± 0.011
298.15 K, m1 = 0.0999 | 0.486 ± 0.005 | 1000.81 ± 0.11 | 0.962 ± 0.012
298.15 K, m1 = 0.1996 | 0.848 ± 0.009 | 1004.54 ± 0.11 | 1.039 ± 0.013
298.15 K, m1 = 0.3 | 1.15 ± 0.012 | 1008.41 ± 0.11 | 1.103 ± 0.014
298.15 K, m1 = 0.3997 | 1.4 ± 0.014 | 1012.17 ± 0.11 | 1.187 ± 0.015
298.15 K, m1 = 0.5001 | 1.6 ± 0.016 | 1015.99 ± 0.11 | 1.289 ± 0.016
298.15 K, m1 = 0.5992 | 1.76 ± 0.018 | 1019.83 ± 0.11 | 1.389 ± 0.017
298.15 K, m1 = 0.6993 | 1.89 ± 0.019 | 1023.57 ± 0.11 | 1.51 ± 0.019
298.15 K, m1 = 0.7997 | 2 ± 0.02 | 1027.65 ± 0.11 | 1.644 ± 0.02
298.15 K, m1 = 0.9003 | 2.07 ± 0.02 | 1031.4 ± 0.11 | 1.805 ± 0.022
298.15 K, m1 = 0.9988 | 2.12 ± 0.02 | 1035.35 ± 0.11 | 1.964 ± 0.024
298.15 K, m1 = 1.199 | 2.13 ± 0.02 | 1043.15 ± 0.11 | 2.388 ± 0.029
298.15 K, m1 = 1.402 | 2.06 ± 0.02 | 1051.04 ± 0.12 | 2.91 ± 0.036
298.15 K, m1 = 1.6 | 1.94 ± 0.019 | 1058.61 ± 0.12 | 3.684 ± 0.045
298.15 K, m1 = 1.802 | 1.76 ± 0.018 | 1066.22 ± 0.12 | 4.58 ± 0.056
298.15 K, m1 = 1.998 | 1.57 ± 0.016 | 1073.41 ± 0.12 | 5.865 ± 0.072
298.15 K, m1 = 2.2 | 1.36 ± 0.014 | 1080.44 ± 0.12 | 7.721 ± 0.095
298.15 K, m1 = 2.402 | 1.16 ± 0.012 | 1087.27 ± 0.12 | 10.14 ± 0.12
298.15 K, m1 = 2.6 | 0.931 ± 0.009 | 1093.23 ± 0.12 | 14.88 ± 0.18
298.15 K, m1 = 2.798 | 0.738 ± 0.007 | 1098.69 ± 0.13 | 20.54 ± 0.25
298.15 K, m1 = 3.002 | 0.578 ± 0.006 | 1103.78 ± 0.13 | 28.69 ± 0.35
303.15 K, m1 = 0.05 | 0.296 ± 0.003 | 997.53 ± 0.11 | 0.828 ± 0.01
303.15 K, m1 = 0.0999 | 0.538 ± 0.005 | 999.38 ± 0.11 | 0.864 ± 0.011
303.15 K, m1 = 0.1996 | 0.941 ± 0.009 | 1003.06 ± 0.11 | 0.93 ± 0.011
303.15 K, m1 = 0.3 | 1.28 ± 0.013 | 1006.88 ± 0.11 | 0.985 ± 0.012
303.15 K, m1 = 0.3997 | 1.56 ± 0.016 | 1010.59 ± 0.11 | 1.058 ± 0.013
303.15 K, m1 = 0.5001 | 1.78 ± 0.018 | 1014.36 ± 0.11 | 1.145 ± 0.014
303.15 K, m1 = 0.5992 | 1.97 ± 0.02 | 1018.15 ± 0.11 | 1.232 ± 0.015
303.15 K, m1 = 0.6993 | 2.11 ± 0.02 | 1021.82 ± 0.11 | 1.335 ± 0.016
303.15 K, m1 = 0.7997 | 2.23 ± 0.02 | 1025.85 ± 0.11 | 1.45 ± 0.018
303.15 K, m1 = 0.9003 | 2.31 ± 0.02 | 1029.53 ± 0.11 | 1.587 ± 0.02
303.15 K, m1 = 0.9988 | 2.37 ± 0.02 | 1033.42 ± 0.11 | 1.722 ± 0.021
303.15 K, m1 = 1.199 | 2.4 ± 0.02 | 1041.09 ± 0.11 | 2.079 ± 0.026
303.15 K, m1 = 1.402 | 2.35 ± 0.02 | 1048.83 ± 0.12 | 2.519 ± 0.031
303.15 K, m1 = 1.6 | 2.22 ± 0.02 | 1056.27 ± 0.12 | 3.163 ± 0.039
303.15 K, m1 = 1.802 | 2.04 ± 0.02 | 1063.74 ± 0.12 | 3.903 ± 0.048
303.15 K, m1 = 1.998 | 1.828 ± 0.018 | 1070.79 ± 0.12 | 4.953 ± 0.061
303.15 K, m1 = 2.2 | 1.59 ± 0.016 | 1077.7 ± 0.12 | 6.458 ± 0.08
303.15 K, m1 = 2.402 | 1.37 ± 0.014 | 1084.44 ± 0.12 | 8.415 ± 0.1
303.15 K, m1 = 2.6 | 1.109 ± 0.011 | 1090.28 ± 0.12 | 12.17 ± 0.15
303.15 K, m1 = 2.798 | 0.878 ± 0.009 | 1095.67 ± 0.13 | 16.6 ± 0.2
303.15 K, m1 = 3.002 | 0.722 ± 0.007 | 1100.68 ± 0.13 | 22.77 ± 0.28
308.15 K, m1 = 0.05 | 0.327 ± 0.003 | – | 0.75 ± 0.009
308.15 K, m1 = 0.0999 | 0.595 ± 0.006 | – | 0.783 ± 0.01
308.15 K, m1 = 0.1996 | 1.042 ± 0.01 | – | 0.839 ± 0.01
308.15 K, m1 = 0.3 | 1.416 ± 0.014 | – | 0.887 ± 0.011
308.15 K, m1 = 0.3997 | 1.729 ± 0.017 | – | 0.951 ± 0.012
308.15 K, m1 = 0.5001 | 1.97 ± 0.02 | – | 1.027 ± 0.013
308.15 K, m1 = 0.5992 | 2.19 ± 0.02 | – | 1.102 ± 0.014
308.15 K, m1 = 0.6993 | 2.36 ± 0.02 | – | 1.19 ± 0.015
308.15 K, m1 = 0.7997 | 2.49 ± 0.03 | – | 1.292 ± 0.016
308.15 K, m1 = 0.9003 | 2.59 ± 0.03 | – | 1.407 ± 0.017
308.15 K, m1 = 0.9988 | 2.66 ± 0.03 | – | –
308.15 K, m1 = 1.199 | 2.7 ± 0.03 | – | –
308.15 K, m1 = 1.402 | 2.65 ± 0.03 | – | –
308.15 K, m1 = 1.6 | 2.53 ± 0.03 | – | –
308.15 K, m1 = 1.802 | 2.33 ± 0.02 | – | –
308.15 K, m1 = 1.998 | 2.11 ± 0.02 | – | –
308.15 K, m1 = 2.2 | 1.85 ± 0.019 | – | –
308.15 K, m1 = 2.402 | 1.6 ± 0.016 | – | –
308.15 K, m1 = 2.6 | 1.305 ± 0.013 | – | –
308.15 K, m1 = 2.798 | 1.06 ± 0.011 | – | –
308.15 K, m1 = 3.002 | 0.848 ± 0.009 | – | –
